Data published in patent US20230295096A1, “PYRAZOLE CARBOXAMIDE COMPOUNDS FOR TREATMENT OF HBV” (ASSEMBLY BIOSCIENCES, INC., priority 2020, published 2023).

These compounds were tested on HBV (assay: Viral load production from HepAD38 cells, qPCR of the HBV core sequence in supernatant). Conditions: Hepatitis B virus, HePAD38, 120 h, HepAD38 cells, 5 days, HBV DNA in supernatant by qPCR; Table 1 ranges; read-out: Activity (viral load lowering EC50).
Type: cell-based
Procedure, shortened: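 EC50 and CC50 come from four-parameter logistic fits of supernatant HBV core DNA (TaqMan qPCR, DNA standards, compared with DMSO wells) and of CellTiter-Glo luminescence.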

Row | Compound | EC50 [µM]
1 | CNC(=O)NCC1CC2CC(c3nn(C)c(N)c3C(=O)Nc3ccc(F)c(Cl)c3)CC2C1 (stereo not shown) [Example 49, 5-Amino-N-(3-chloro-4-fluorophenyl)-1-methyl-3-(5-((3-methylureido)methyl)octahydropentalen-2-yl)-1H-pyrazole-4-carboxamide] | < 0.01
2 | Cn1nc(C2CC3CC(CNC(=O)C4CCOCC4)CC3C2)c(C(=O)Nc2ccc(F)c(Cl)c2)c1N (stereo not shown) [Example 50, 5-Amino-N-(3-chloro-4-fluorophenyl)-1-methyl-3-(5-((tetrahydro-2H-pyran-4-carboxamido)methyl)octahydropentalen-2-yl)-1H-pyrazole-4-carboxamide] | < 0.01
3 | CC1CCC(C(=O)NCC2CC3CC(c4nn(C)c(N)c4C(=O)Nc4ccc(F)c(Cl)c4)CC3C2)CC1 (stereo not shown) [Example 51, 5-Amino-N-(3-chloro-4-fluorophenyl)-1-methyl-3-(5-((4-methylcyclohexane-1-carboxamido)methyl)octahydropentalen-2-yl)-1H-pyrazole-4-carboxamide] | 0.01 to 0.05
4 | C#CCCC(=O)NCC1CC2CC(c3nn(C)c(N)c3C(=O)Nc3ccc(F)c(Cl)c3)CC2C1 (stereo not shown) [Example 52, 5-Amino-N-(3-chloro-4-fluorophenyl)-1-methyl-3-(5-(pent-4-ynamidomethyl)octahydropentalen-2-yl)-1H-pyrazole-4-carboxamide] | < 0.01
5 | Cn1nc(C2CC3CC(CNC(=O)C4CCC(F)(F)CC4)CC3C2)c(C(=O)Nc2ccc(F)c(Cl)c2)c1N (stereo not shown) [Example 53, 5-Amino-N-(3-chloro-4-fluorophenyl)-3-(5-((4,4-difluorocyclohexane-1-carboxamido)methyl)octahydropentalen-2-yl)-1-methyl-1H-pyrazole-4-carboxamide] | < 0.01
6 | CC(=O)NCC1CC2CC(c3nn(C)c(N)c3C(=O)Nc3ccc(F)c(Cl)c3)CC2C1 (stereo not shown) [Example 54, 3-(5-(Acetamidomethyl)octahydropentalen-2-yl)-5-amino-N-(3-chloro-4-fluorophenyl)-1-methyl-1H-pyrazole-4-carboxamide] | < 0.01
7 | Cn1nc(C2CC3CC(CNC(=O)CC(F)(F)F)CC3C2)c(C(=O)Nc2ccc(F)c(Cl)c2)c1N (stereo not shown) [Example 55, 5-Amino-N-(3-chloro-4-fluorophenyl)-1-methyl-3-(5-((3,3,3-trifluoropropanamido)methyl)octahydropentalen-2-yl)-1H-pyrazole-4-carboxamide] | < 0.01
8 | Cn1nc(C2CC3CC(CNC(=O)CCC(C)(C)C)CC3C2)c(C(=O)Nc2ccc(F)c(Cl)c2)c1N (stereo not shown) [Example 56, 5-Amino-N-(3-chloro-4-fluorophenyl)-3-(5-((4,4-dimethylpentanamido)methyl)octahydropentalen-2-yl)-1-methyl-1H-pyrazole-4-carboxamide] | < 0.01
9 | Cn1nc(C2CC3CC(CNC(=O)c4ccc(C(F)(F)F)cc4)CC3C2)c(C(=O)Nc2ccc(F)c(Cl)c2)c1N (stereo not shown) [Example 57, 5-Amino-N-(3-chloro-4-fluorophenyl)-1-methyl-3-(5-((4-(trifluoromethyl)benzamido)methyl)octahydropentalen-2-yl)-1H-pyrazole-4-carboxamide] | 0.01 to 0.05
10 | Cn1nc(C2CC3CC(CNC(=O)c4cnc(C(F)(F)F)s4)CC3C2)c(C(=O)Nc2ccc(F)c(Cl)c2)c1N (stereo not shown) [Example 58, N-((5-(5-Amino-4-((3-chloro-4-fluorophenyl)carbamoyl)-1-methyl-1H-pyrazol-3-yl)octahydropentalen-2-yl)methyl)-2-(trifluoromethyl)thiazole-5-carboxamide] | 0.01 to 0.05
11 | Cc1noc(C)c1C(=O)NCC1CC2CC(c3nn(C)c(N)c3C(=O)Nc3ccc(F)c(Cl)c3)CC2C1 (stereo not shown) [Example 59, N-((5-(5-Amino-4-((3-chloro-4-fluorophenyl)carbamoyl)-1-methyl-1H-pyrazol-3-yl)octahydropentalen-2-yl)methyl)-3,5-dimethylisoxazole-4-carboxamide] | < 0.01
12 | Cn1nc(C2CC3CC(CNC(=O)c4ccns4)CC3C2)c(C(=O)Nc2ccc(F)c(Cl)c2)c1N (stereo not shown) [Example 60, N-((5-(5-Amino-4-((3-chloro-4-fluorophenyl)carbamoyl)-1-methyl-1H-pyrazol-3-yl)octahydropentalen-2-yl)methyl)isothiazole-5-carboxamide] | < 0.01
13 | Cn1nc(C2CC3CC(CNC(=O)c4cncc(F)c4)CC3C2)c(C(=O)Nc2ccc(F)c(Cl)c2)c1N (stereo not shown) [Example 61, N-((5-(5-Amino-4-((3-chloro-4-fluorophenyl)carbamoyl)-1-methyl-1H-pyrazol-3-yl)octahydropentalen-2-yl)methyl)-5-fluoronicotinamide] | < 0.01
14 | Cn1nc(C2CC3CC(CNC(=O)C4CCN(C(=O)OC(C)(C)C)CC4)CC3C2)c(C(=O)Nc2ccc(F)c(Cl)c2)c1N (stereo not shown) [Example 62, tert-Butyl 4-(((5-(5-amino-4-((3-chloro-4-fluorophenyl)carbamoyl)-1-methyl-1H-pyrazol-3-yl)octahydropentalen-2-yl)methyl)carbamoyl)piperidine-1-carboxylate] | < 0.01
15 | Cn1nc(C2CC3CC(CNC(=O)C(C)(C)C4CCOCC4)CC3C2)c(C(=O)Nc2ccc(F)c(Cl)c2)c1N (stereo not shown) [Example 63, 5-Amino-N-(3-chloro-4-fluorophenyl)-1-methyl-3-(5-((2-methyl-2-(tetrahydro-2H-pyran-4-yl)propanamido)methyl)octahydropentalen-2-yl)-1H-pyrazole-4-carboxamide] | 0.01 to 0.05
16 | Cn1nc(C2CC3CC(CNC(=O)C4(C)COC4)CC3C2)c(C(=O)Nc2ccc(F)c(Cl)c2)c1N (stereo not shown) [Example 64, 5-Amino-N-(3-chloro-4-fluorophenyl)-1-methyl-3-(5-((3-methyloxetane-3-carboxamido)methyl)octahydropentalen-2-yl)-1H-pyrazole-4-carboxamide] | < 0.01
17 | Cn1nc(C2CC3CC(CNC(=O)C4(C)CC4)CC3C2)c(C(=O)Nc2ccc(F)c(Cl)c2)c1N (stereo not shown) [Example 65, 5-Amino-N-(3-chloro-4-fluorophenyl)-1-methyl-3-(5-((1-methylcyclopropane-1-carboxamido)methyl)octahydropentalen-2-yl)-1H-pyrazole-4-carboxamide] | < 0.01
18 | Cn1nc(C2CC3CC(CNC(=O)C(C)(C)C(F)(F)F)CC3C2)c(C(=O)Nc2ccc(F)c(Cl)c2)c1N (stereo not shown) [Example 66, 5-Amino-N-(3-chloro-4-fluorophenyl)-1-methyl-3-(5-((3,3,3-trifluoro-2,2-dimethylpropanamido)methyl)octahydropentalen-2-yl)-1H-pyrazole-4-carboxamide] | 0.01 to 0.05
19 | Cn1nc(C2CC3CC(CNC(=O)C(C)(C)CO)CC3C2)c(C(=O)Nc2ccc(F)c(Cl)c2)c1N (stereo not shown) [Example 67, 5-Amino-N-(3-chloro-4-fluorophenyl)-3-(5-((3-hydroxy-2,2-dimethylpropanamido)methyl)octahydropentalen-2-yl)-1-methyl-1H-pyrazole-4-carboxamide] | < 0.01
20 | Cn1nc(C2CC3CC(CNC(=O)C4(C)CCC4)CC3C2)c(C(=O)Nc2ccc(F)c(Cl)c2)c1N (stereo not shown) [Example 68, 5-Amino-N-(3-chloro-4-fluorophenyl)-1-methyl-3-(5-((1-methylcyclobutane-1-carboxamido)methyl)octahydropentalen-2-yl)-1H-pyrazole-4-carboxamide] | < 0.01
21 | Cn1nc(C2CC3CC(CNC(=O)C45CC(C4)C5)CC3C2)c(C(=O)Nc2ccc(F)c(Cl)c2)c1N (stereo not shown) [Example 69, 5-Amino-3-(5-((bicyclo[1.1.1]pentane-1-carboxamido)methyl)octahydropentalen-2-yl)-N-(3-chloro-4-fluorophenyl)-1-methyl-1H-pyrazole-4-carboxamide] | < 0.01
22 | Cn1nc(C2CC3CC(CNC(=O)C(C)(C)C4CCN(C(=O)OC(C)(C)C)CC4)CC3C2)c(C(=O)Nc2ccc(F)c(Cl)c2)c1N (stereo not shown) [Example 70, tert-Butyl 4-(1-(((5-(5-amino-4-((3-chloro-4-fluorophenyl)carbamoyl)-1-methyl-1H-pyrazol-3-yl)octahydropentalen-2-yl)methyl)amino)-2-methyl-1-oxopropan-2-yl)piperidine-1-carboxylate] | 0.01 to 0.05
23 | Cn1nc(C2CC3CC(CNC(=O)CCCN4CCCCC4)CC3C2)c(C(=O)Nc2ccc(F)c(Cl)c2)c1N (stereo not shown) [Example 71, 5-Amino-N-(3-chloro-4-fluorophenyl)-1-methyl-3-(5-((4-(piperidin-1-yl)butanamido)methyl)octahydropentalen-2-yl)-1H-pyrazole-4-carboxamide] | 0.01 to 0.05
24 | Cn1nc(C2CC3CC(CNC(=O)CCCN4CCOCC4)CC3C2)c(C(=O)Nc2ccc(F)c(Cl)c2)c1N (stereo not shown) [Example 72, 5-Amino-N-(3-chloro-4-fluorophenyl)-1-methyl-3-(5-((4-morpholinobutanamido)methyl)octahydropentalen-2-yl)-1H-pyrazole-4-carboxamide] | < 0.01
25 | Cn1nc(C2CC3CC(CNC(=O)CCCCCNC(=O)OC(C)(C)C)CC3C2)c(C(=O)Nc2ccc(F)c(Cl)c2)c1N (stereo not shown) [Example 73, tert-Butyl (6-(((5-(5-amino-4-((3-chloro-4-fluorophenyl)carbamoyl)-1-methyl-1H-pyrazol-3-yl)octahydropentalen-2-yl)methyl)amino)-6-oxohexyl)carbamate] | 0.01 to 0.05
26 | Cn1nc(C2CC3CC(CNC(=O)COCCOCCNC(=O)OC(C)(C)C)CC3C2)c(C(=O)Nc2ccc(F)c(Cl)c2)c1N (stereo not shown) [Example 74, tert-Butyl (2-(2-(2-(((5-(5-amino-4-((3-chloro-4-fluorophenyl)carbamoyl)-1-methyl-1H-pyrazol-3-yl)octahydropentalen-2-yl)methyl)amino)-2-oxoethoxy)ethoxy)ethyl)carbamate] | < 0.01
27 | Cn1nc(C2CC3CC(CNC(=O)C4CCNCC4)CC3C2)c(C(=O)Nc2ccc(F)c(Cl)c2)c1N (stereo not shown) [Example 75, N-((5-(5-Amino-4-((3-chloro-4-fluorophenyl)carbamoyl)-1-methyl-1H-pyrazol-3-yl)octahydropentalen-2-yl)methyl)piperidine-4-carboxamide] | 0.01 to 0.05
28 | Cn1nc(C2CC3CC(CNC(=O)C4CCCCC4)CC3C2)c(C(=O)Nc2ccc(F)c(Cl)c2)c1N (stereo not shown) [Example 76, 5-Amino-N-(3-chloro-4-fluorophenyl)-3-(5-(cyclohexanecarboxamidomethyl)octahydropentalen-2-yl)-1-methyl-1H-pyrazole-4-carboxamide] | 0.01 to 0.05
